Results published in patent US20070049593A1 (priority 2004, published 2007).
Counter-ions that a name gives are not always drawn.

Target: T1, HCV polymerase (Hepatitis C virus genotype 1b, UniProt P26663)
T1 construct: a region encoding NS5B (J Virol 1991 March, 65(3), 1105-13, 544 amino acids after deletion of 47 amino acids on the C-terminal); 6xHis (C); made in house; host or cells: Escherichia coli
Assay: biochemical
Set-up: species or system HCV BK strain
Method in brief: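 His-tagged NS5B (BK strain, 47-aa C-terminal deletion, E. coli-expressed) at 0.5 μg/ml copied 5 μg/ml run-off RNA bearing the HCV 3′ UTR with 2 μM UTP plus [3H]UTP, 50 μM ATP/GTP, in pH 7.5 Tris with 5 mM MgCl2, 25 °C, 90 min. TCA-precipitated RNA was counted and IC50 calculated.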

T1 sequence (P26663 2420-2963): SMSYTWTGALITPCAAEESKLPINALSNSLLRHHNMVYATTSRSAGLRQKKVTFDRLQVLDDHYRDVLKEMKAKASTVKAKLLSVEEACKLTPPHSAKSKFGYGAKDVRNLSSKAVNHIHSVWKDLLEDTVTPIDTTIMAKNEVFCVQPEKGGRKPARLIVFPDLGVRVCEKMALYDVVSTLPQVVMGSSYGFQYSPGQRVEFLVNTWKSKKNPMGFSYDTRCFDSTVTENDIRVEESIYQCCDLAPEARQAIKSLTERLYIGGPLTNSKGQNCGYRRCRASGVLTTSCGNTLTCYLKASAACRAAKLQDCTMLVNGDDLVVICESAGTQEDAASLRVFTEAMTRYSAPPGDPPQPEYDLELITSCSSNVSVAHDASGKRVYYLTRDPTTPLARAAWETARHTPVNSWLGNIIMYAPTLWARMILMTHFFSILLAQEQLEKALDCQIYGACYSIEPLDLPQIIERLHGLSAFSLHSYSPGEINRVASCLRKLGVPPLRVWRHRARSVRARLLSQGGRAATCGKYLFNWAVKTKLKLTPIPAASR

Row | Structure (SMILES) | IC50
1 | CC(C)c1ccc2c(c1)N(CCN1CCCCCC1)CCn1c-2c(C2CCCCC2)c2ccc(C(=O)O)cc21 [Example 1-337, 5-[2-(azepan-1-yl)ethyl]-13-cyclohexyl-3-isopropyl-6,7-dihydro-5H-benzo[5,6][1,4]diazepino[7,1-a]indole-10-carboxylic acid dihydrochloride] | < 0.1 µM
2 | COC(=O)[C@H](Cc1c[nH]c2ccc(O)cc12)NC(=O)c1ccc2c(C3CCCCC3)c3n(c2c1)CCOc1cc(OC)ccc1-3 [Example 2-316, methyl (S)-2-[(12-cyclohexyl-3-methoxy-6,7-dihydro-5-oxa-7a-azadibenzo[a,e]azulene-9-carbonyl)amino]-3-(5-hydroxy-1H-indol-3-yl)propionate] | < 0.1 µM
3 | CCOc1ccc2c(c1)N(CCN1CCCC(COC)C1)CCn1c-2c(C2CCCCC2)c2ccc(C(=O)O)cc21 (stereo not shown) [Example 1-370, 13-cyclohexyl-3-ethoxy-5-[2-(3-methoxymethylpiperidin-1-yl)ethyl]-6,7-dihydro-5H-benzo[5,6][1,4]diazepino[7,1-a]indole-10-carboxylic acid] | < 0.1 µM
4 | O=C(O)c1ccc2c(C3CCCCC3)c3n(c2c1)CCN(CCC1CCCNC1)c1cc(Cl)ccc1-3 (stereo not shown) [Example 1-219, 3-chloro-13-cyclohexyl-5-[2-(piperidin-3-yl)ethyl]-6,7-dihydro-5H-benzo[5,6][1,4]diazepino[7,1-a]indole-10-carboxylic acid dihydrochloride] | < 0.1 µM
5 | COC(=O)c1ccc(NC(=O)C(C)(C)NC(=O)c2ccc3c(C4CCCCC4)c4n(c3c2)CCOc2cc(OC)ccc2-4)cc1 [Example 2-349, methyl 4-{2-[(12-cyclohexyl-3-methoxy-6,7-dihydro-5-oxa-7a-azadibenzo[a,e]azulene-9-carbonyl)amino]-2-methylpropionylamino}benzoate] | < 0.1 µM
6 | O=C(NCc1nc2ccccc2n1CCO)c1ccc2c(C3CCCCC3)c3n(c2c1)CCOc1ccccc1-3 [Example 2-288, N-[1-(2-hydroxyethyl)-1H-benzimidazol-2-ylmethyl]-12-cyclohexyl-6,7-dihydro-5-oxa-7a-azadibenzo[a,e]azulene-9-carboxamide] | < 0.1 µM
7 | Cc1ccc2c(c1)N(C)CCn1c-2c(C2CCCCC2)c2ccc(C(=O)O)c(Cl)c21 [Example 1-452, 9-chloro-13-cyclohexyl-3,5-dimethyl-6,7-dihydro-5H-benzo[5,6][1,4]diazepino[7,1-a]indole-10-carboxylic acid] | < 0.1 µM
8 | Nc1cccc2c1OCCn1c-2c(C2CCCCC2)c2ccc(C(=O)O)cc21 [Example 2-476, 4-amino-12-cyclohexyl-6,7-dihydro-5-oxa-7a-azadibenzo[a,e]azulene-9-carboxylic acid] | < 0.1 µM
9 | O=C(O)c1ccc2c(C3CCCCC3)c3n(c2c1)CCN(CCN1CCCC1=O)c1ccccc1-3 [Example 1-90, 13-cyclohexyl-5-[2-(2-oxopyrrolidin-1-yl)ethyl]-6,7-dihydro-5H-benzo[5,6][1,4]diazepino[7,1-a]indole-10-carboxylic acid monohydrochloride] | < 0.1 µM
10 | COc1ccc2c(c1)OCCn1c-2c(C2CCCCC2)c2ccc(C(=O)NC(C)(C)c3nc4ccc(C(=O)N5CCOCC5)cc4[nH]3)cc21 [Example 2-419, N-(1-methyl-1-[6-(morpholine-4-carbonyl)-1H-benzimidazol-2-yl]ethyl}-12-cyclohexyl-3-methoxy-6,7-dihydro-5-oxa-7a-azadibenzo[a,e]azulene-9-carboxamide] | < 0.1 µM
11 | COc1ccc2c(c1)-c1c(C3CCCCC3)c3ccc(C(=O)O)cc3n1CCO2 [Example 2-6, 12-cyclohexyl-2-methoxy-6,7-dihydro-5-oxa-7a-azadibenzo[a,e]azulene-9-carboxylic acid] | 0.1 to 1 µM
12 | COc1ccc(Oc2ccc3c(c2)OCCn2c-3c(C3CCCCC3)c3ccc(C(=O)O)cc32)cc1 [Example 2-25, 12-cyclohexyl-3-(4-methoxyphenoxy)-6,7-dihydro-5-oxa-7a-azadibenzo[a,e]azulene-9-carboxylic acid] | < 0.1 µM
13 | COC(=O)[C@H](Cc1ccc(OCC(=O)O)cc1)NC(=O)c1ccc2c(C3CCCCC3)c3n(c2c1)CCOc1cc(OC)ccc1-3 [Example 2-378, methyl (S)-3-(4-carboxymethoxyphenyl)-2-[(12-cyclohexyl-3-methoxy-6,7-dihydro-5-oxa-7a-azadibenzo[a,e]azulene-9-carbonyl)amino]propionate] | < 0.1 µM
14 | CC1CC(C)CN(CCN2CCn3c(c(C4CCCCC4)c4ccc(C(=O)O)cc43)-c3ccccc32)C1 (stereo not shown) [Example 1-189, 13-cyclohexyl-5-[2-(3,5-dimethylpiperidin-1-yl)ethyl]-6,7-dihydro-5H-benzo[5,6][1,4]diazepino[7,1-a]indole-10-carboxylic acid dihydrochloride] | < 0.1 µM
15 | CCc1ccc2c(c1)N(CCN1CCCCCC1)CCn1c-2c(C2CCCCC2)c2ccc(C(=O)O)cc21 [Example 1-338, 5-[2-(azepan-1-yl)ethyl]-13-cyclohexyl-3-ethyl-6,7-dihydro-5H-benzo[5,6][1,4]diazepino[7,1-a]indole-10-carboxylic acid dihydrochloride] | < 0.1 µM
16 | CS(=O)(=O)N1CCC(CCN2CCn3c(c(C4CCCCC4)c4ccc(C(=O)O)cc43)-c3ccccc32)CC1 [Example 1-94, 13-cyclohexyl-5-[2-(1-methanesulfonylpiperidin-4-yl)ethyl]-6,7-dihydro-5H-benzo[5,6][1,4]diazepino[7,1-a]indole-10-carboxylic acid monohydrochloride] | < 0.1 µM
17 | CC(C)(C)OC(=O)N1CCC[C@H]1COc1ccc2c(c1)OCCn1c-2c(C2CCCCC2)c2ccc(C(=O)O)cc21 [Example 2-35, 3-[(S)-1-(tert-butoxycarbonyl)pyrrolidin-2-ylmethoxy]-12-cyclohexyl-6,7-dihydro-5-oxa-7a-azadibenzo[a,e]azulene-9-carboxylic acid] | < 0.1 µM
18 | O=C(NCc1nc2ccccc2[nH]1)c1ccc2c(C3CCCCC3)c3n(c2c1)CCOc1ccccc1-3 [Example 2-252, N-(1H-benzimidazol-2-ylmethyl)-12-cyclohexyl-6,7-dihydro-5-oxa-7a-azadibenzo[a,e]azulene-9-carboxamide] | < 0.1 µM
19 | COCC[C@H]1CCCN(CCN2CCn3c(c(C4CCCCC4)c4ccc(C(=O)O)cc43)-c3ccc(C)cc32)C1 [Example 1-409, 13-cyclohexyl-5-{2-[(R)-3-(2-methoxyethyl)piperidin-1-yl]ethyl}-3-methyl-6,7-dihydro-5H-benzo[5,6][1,4]diazepino[7,1-a]indole-10-carboxylic acid dihydrochloride] | < 0.1 µM
20 | CC(C)(COc1ccc([N+](=O)[O-])cc1)NC(=O)c1ccc2c(C3CCCCC3)c3n(c2c1)CCOc1ccccc1-3 [Example 2-188, N-[1,1-dimethyl-2-(4-nitrophenoxy)ethyl]-12-cyclohexyl-6,7-dihydro-5-oxa-7a-azadibenzo[a,e]azulene-9-carboxamide] | 0.1 to 1 µM
21 | O=C(O)c1ccc2c(C3CCCCC3)c3n(c2c1)CCN(CCC1CCCN(C2CC2)C1)c1cc(Cl)ccc1-3 (stereo not shown) [Example 1-342, 3-chloro-13-cyclohexyl-5-[2-(1-cyclopropylpiperidin-3-yl)ethyl]-6,7-dihydro-5H-benzo[5,6][1,4]diazepino[7,1-a]indole-10-carboxylic acid dihydrochloride] | < 0.1 µM
22 | COCC[C@@H]1CCCN(CCN2CCn3c(c(C4CCCCC4)c4ccc(C(=O)O)cc43)-c3ccc(OC)cc32)C1 [Example 1-445, 13-cyclohexyl-3-methoxy-5-{2-[(S)-3-(2-methoxyethyl)piperidin-1-yl]ethyl}-6,7-dihydro-5H-benzo[5,6][1,4]diazepino[7,1-a]indole-10-carboxylic acid dihydrochloride] | < 0.1 µM
23 | COCCOC[C@@H]1CCCN(CCN2CCn3c(c(C4CCCCC4)c4ccc(C(=O)O)cc43)-c3ccc(C)cc32)C1 [Example 1-528, 13-cyclohexyl-5-{2-[(R)-3-(2-methoxyethoxymethyl)piperidin-1-yl]ethyl}-3-methyl-6,7-dihydro-5H-benzo[5,6][1,4]diazepino[7,1-a]indole-10-carboxylic acid dihydrochloride] | < 0.1 µM
24 | COc1ccc2c(c1)OCCn1c-2c(C2CCCCC2)c2ccc(C(=O)NC(C)(C)c3nc4ccccc4[nH]3)cc21 [Example 2-408, N-[1-(1H-benzimidazol-2-yl)-1-methylethyl]-12-cyclohexyl-3-methoxy-6,7-dihydro-5-oxa-7a-azadibenzo[a,e]azulene-9-carboxamide] | < 0.1 µM
25 | CC(C)(NC(=O)c1ccc2c(C3CCCCC3)c3n(c2c1)CCOc1ccccc1-3)C(=O)N1CCC(O)(c2ccc(F)cc2)CC1 [Example 2-358, N-{2-[4-(4-fluorophenyl)-4-hydroxypiperidin-1-yl]-1,1-dimethyl-2-oxoethyl]-12-cyclohexyl-6,7-dihydro-5-oxa-7a-azadibenzo[a,e]azulene-9-carboxamide] | < 0.1 µM
26 | CCOC(=O)[C@H](Cc1ccc(O)cc1)NC(=O)c1ccc2c(C3CCCCC3)c3n(c2c1)CCOc1cc(OC)ccc1-3 [Example 2-435, ethyl (S)-2-[(12-cyclohexyl-3-methoxy-6,7-dihydro-5-oxa-7a-azadibenzo[a,e]azulene-9-carbonyl)amino]-3-(4-hydroxyphenyl)propionate] | < 0.1 µM
27 | O=C(O)c1ccc(NC(=O)C2(NC(=O)c3ccc4c(C5CCCCC5)c5n(c4c3)CCOc3ccccc3-5)CCC2)nc1 [Example 2-54, 6-({1-[(12-cyclohexyl-6,7-dihydro-5-oxa-7a-azadibenzo[a,e]azulene-9-carbonyl)amino]cyclobutanecarbonyl}amino)nicotinic acid] | < 0.1 µM
28 | CC(C)OCCN(CCN1CCCCC1)c1cccc2c1OCCn1c-2c(C2CCCCC2)c2ccc(C(=O)O)cc21 [Example 2-257, 12-cyclohexyl-4-(N-(2-isopropoxyethyl)-N-[2-(piperidin-1-yl)ethyl]amino}-6,7-dihydro-5-oxa-7a-azadibenzo[a,e]azulene-9-carboxylic acid dihydrochloride] | < 0.1 µM
